Assay results from patent publication US9314026B2, “Heterocyclylpyri(mi)dinylpyrazole” (Bayer Intellectual Property GmbH, priority 2011, dated 2016).

Test: determination of the log P values by HPLC on a reverse phase column (C18), EEC-Directive 79/831 Annex V.A8
Type: physicochemical
Description: Method A Note on the determination of the log P values and mass detection: The stated log P values were determined in accordance with EEC-Directive 79/831 Annex V.A8 by HPLC (High Performance Liquid Chromatography) on a reverse phase column (C18). […] The mass detection was effected with an […] system. Method B Note on the determination of the log P values and mass detection: The stated log P values were determined in accordance with EEC-Directive 79/831 Annex V.A8 by HPLC (High Performance Liquid Chromatography) on a reverse phase column (C18). […] The mass detection was effected with the Micronass ZQ2000 mass detector from Waters. Method C Note on the determination of the log P values and mass detection: The stated log P values were determined in accordance with EEC-Directive 79/831 Annex V.A8 by UPLC (Ultra Performance Liquid Chromatography) on a reverse phase column (C18). […] The mass detection was effected with the LCT Premier or SQD mass detector from Waters.

SMILES: CC1CCn2nc(-c3ccccc3)c(I)c21 (stereo not drawn) [[IV-4], 3-iodo-4-methyl-2-phenyl-5,6-dihydro-4H-pyrrolo[1,2-b]pyrazole]
- chromatographic logP (pH 2.3): 3.56
- chromatographic logP (pH 2.5): 3.56

SMILES: CC1CCc2c(I)c(-c3ccc(F)cc3)nn21 (stereo not drawn) [[IV-5], 2-(4-fluorophenyl)-3-iodo-6-methyl-5,6-dihydro-4H-pyrrolo[1,2-b]pyrazole]
- chromatographic logP (pH 2.3): 3.78
- chromatographic logP (pH 2.5): 3.78

SMILES: Clc1cc(-c2nn3c(c2I)CCCC3)cs1 [[IV-6], 2-(5-chloro-3-thienyl)-3-iodo-4,5,6,7-tetrahydropyrazolo[1,5-a]pyridine]
- chromatographic logP (pH 2.3): 4.49
- chromatographic logP (pH 2.5): 4.49

SMILES: Fc1ccc(-c2cc3n(n2)CCC3)cc1 [[VI-1], 2-(4-fluorophenyl)-5,6-dihydro-4H-pyrrolo[1,2-b]pyrazole]
- chromatographic logP (pH 2.3): 2.39
- chromatographic logP (pH 2.7): 2.39

SMILES: Fc1ccc(-c2cc3n(n2)CCC3)cc1F [[VI-2], 2-(3,4-difluorophenyl)-5,6-dihydro-4H-pyrrolo[1,2-b]pyrazole]
- chromatographic logP (pH 2.3): 2.69
- chromatographic logP (pH 2.7): 2.69

SMILES: Fc1ccc(-c2cc3n(n2)CCC3)cc1Cl [[VI-3], 2-(3-chloro-4-fluorophenyl)-5,6-dihydro-4H-pyrrolo[1,2-b]pyrazole]
- chromatographic logP (pH 2.3): 3.07
- chromatographic logP (pH 2.7): 3.07

SMILES: CS(=O)(=O)OCCCc1cc(-c2ccc(F)cc2)n[nH]1 [[VII-1], 3-[3-(4-fluorophenyl)-1H-pyrazol-5-yl]propyl methanesulfonate]
- chromatographic logP (pH 2.7): 2

SMILES: CS(=O)(=O)OCCCc1cc(-c2ccc(F)c(Cl)c2)n[nH]1 [[VII-2], 3-[3-(3-chloro-4-fluorophenyl)-1H-pyrazol-5-yl]propyl methanesulfonate]
- chromatographic logP (pH 2.7): 2.42

SMILES: CS(=O)(=O)OCCCc1cc(-c2ccc(F)c(F)c2)n[nH]1 [[VII-3], 3-[3-(3,4-difluorophenyl)-1H-pyrazol-5-yl]propyl methanesulfonate]
- chromatographic logP (pH 2.7): 2.17

SMILES: CC(=O)Nc1cc(-c2c(-c3ccccc3)nn3c2C(C)CC3)ccn1 (stereo not drawn) [[XI-1], N-[4-(4-methyl-2-phenyl-5,6-dihydro-4H-pyrrolo[1,2-b]pyrazol-3-yl)pyridin-2-yl]acetamide]
- chromatographic logP (pH 2.3): 1.6
- chromatographic logP (pH 2.7): 1.76

SMILES: CCC(=O)Nc1cc(-c2c(-c3ccccc3)nn3c2C(C)CC3)ccn1 (stereo not drawn) [[XI-2], N-[4-(4-methyl-2-phenyl-5,6-dihydro-4H-pyrrolo[1,2-b]pyrazol-3-yl)pyridin-2-yl]propanamide]
- chromatographic logP (pH 2.3): 1.87

SMILES: CC(=O)Nc1cc(-c2c(-c3ccc(F)cc3)nn3c2CC(C)C3)ccn1 (stereo not drawn) [[XI-3], N-{4-[2-(4-fluorophenyl)-5-methyl-5,6-dihydro-4H-pyrrolo[1,2-b]pyrazol-3-yl]pyridin-2-yl}acetamide]
- chromatographic logP (pH 2.3): 1.64

SMILES: O=C(Nc1cc(-c2c(-c3ccc(F)cc3)nn3c2CCC3)ccn1)C1CC1 [[XI-4], N-{4-[2-(4-fluorophenyl)-5,6-dihydro-4H-pyrrolo[1,2-b]pyrazol-3-yl]pyridin-2-yl}cyclopropanecarboxamide]
- chromatographic logP (pH 2.3): 1.73

SMILES: COCC(=O)Nc1cc(-c2c(-c3ccccc3)nn3c2C(C)CC3)ccn1 (stereo not drawn) [[XI-5], 2-methoxy-N-[4-(4-methyl-2-phenyl-5,6-dihydro-4H-pyrrolo[1,2-b]pyrazol-3-yl)pyridin-2-yl]acetamide]
- chromatographic logP (pH 2.3): 2.22

SMILES: CCC1CCc2c(-c3ccnc(NC(C)=O)c3)c(-c3ccc(F)cc3)nn21 (stereo not drawn) [[XI-6], N-{4-[6-ethyl-2-(4-fluorophenyl)-5,6-dihydro-4H-pyrrolo[1,2-b]pyrazol-3-yl]pyridin-2-yl}acetamide]
- chromatographic logP (pH 2.3): 1.96

SMILES: CCC(=O)Nc1cc(-c2c(-c3ccc(F)cc3)nn3c2CC(C)C3)ccn1 (stereo not drawn) [[XI-7], N-{4-[2-(4-fluorophenyl)-5-methyl-5,6-dihydro-4H-pyrrolo[1,2-b]pyrazol-3-yl]pyridin-2-yl}propanamide]
- chromatographic logP (pH 2.3): 1.91

SMILES: CC(C)C(=O)Nc1cc(-c2c(-c3ccc(F)cc3)nn3c2CCC3)ccn1 [[XI-8], N-{4-[2-(4-fluorophenyl)-5,6-dihydro-4H-pyrrolo[1,2-b]pyrazol-3-yl]pyridin-2-yl}-2-methylpropanamide]
- chromatographic logP (pH 2.3): 1.97
